Data on seven molecules can be found in patent US10005735B2, “Inhibitors of RPN11” (California Institute of Technology, priority 2015, dated 2018).

pIC50: −log10 of the molar value. Bounds are passed on as bounds.

In assay [1] the target is T1, Rpn11 (Homo sapiens (Human), UniProt O00487). Nature of the assay: Rpn11 activity assay (fluorescence polarization, Ub4-pepOG cleavage by 26S proteasome). The format is biochemical. As to conditions: Table 2; 1 mM DTT in assay reduces disulfides to monomeric active species. From the text: Candidate compounds according to embodiments of the present invention were synthesized as described herein. […] In brief, this Rpn11 bioassay employs a fluorescent polarization readout based on the ability of the 26S proteasome to cleave the protein substrate including four tandem ubiquitin proteins fused to a peptide having a unique cysteine labeled with a fluorophore. Cleavage of this substrate by Rpn11 at the junction between the fourth ubiquitin and the peptide, releases the low molecular weight fluorescent peptide. Accordingly, inhibition of fluorescence correlates with inhibition of Rpn11. Inhibition is reported as the half maximal inhibitory concentration (IC50) for the candidate compound.
Rpn11 Activity Assay. […] In brief, in order to measure the Rpn11 activity, a synthetic peptide substrate, termed Ub4-pepOG, was engineered. […] Peptide substrate Ub4-pepOG consists of only 30 amino acids and therefore the decrease of polarization is mainly from deubiquitination but not the proteolysis of the peptide. Fluorescence polarization assay was performed in a low-volume 384 well solid black plate where the components are added in the follow sequence: 1) 5 μl compound in 3% DMSO or 3% DMSO control 2) 5 μl 26S proteasome (Enzo Life Sciences Inc, NY). […] Fluorescence polarization is measured using a PHERAstar (BMG labtech, Ortenberg, Germany) plate reader with excitation of 480 nm and emission of 520 nm filter set. […] Rpn11 activity was normalized to DMSO control and fitted using does-response curve.
A general note: In fluorescence polarisation assays a small probe gives low polarisation when free and higher when bound to something large.

In assay [2] the target is Csn5 (Homo sapiens (Human), UniProt Q92905). The assay is described as follows: Csn5 activity assay (fluorescence polarization, SCF^skp2-Nedd8OG, COP9 Signalosome Complex). The format is biochemical. As to conditions: Table 2. As to the method: Csn5 Activity Assay. […] In brief, a fluorescent substrate termed SCF^skp2-Nedd8OG was produced to measure CSN5 activity in vitro. This assay measures the decrease in fluorescence polarization due to the decrease in apparent molecular weight of Oregon Green (OG) fluorophore (from the ˜175 kDa substrate to ˜9 kDa Nedd8OG) as a result of Csn5-mediated cleavage of the isopeptide bond that links Nedd8OG to SCF^Skp2. The assay was performed in a low-volume 384 well solid black plate comprising equal volumes of compound, substrate (SCF^skp2-Need8OG) and enzyme (purified COP9 Signalosome Complex, CSN). Fluorescence polarization was recorded using the same setting as for the Rpn11 activity assay.

The target in assay [3] is AMSH (Homo sapiens (Human), UniProt O95630). Nature of the assay: AMSH activity assay (DiUb^K63TAMRA cleavage, fluorescence). The format is biochemical. As to conditions: Table 2. From the text:
AMSH Activity Assay. AMSH is known to selectively cleave ubiquitin chains in which the ubiquitins are joined via K63 of the proximal ubiquitin linked by an isopeptide bond to the carboxy terminus of the distal ubiquitin. […] In brief, DiUb^K63TAMRA was labeled with quench pairs TAMRA/QXL.

Assay [4] has as its system Ub^G76V-GFP. The assay is described as follows: Reporter degradation assay in Hela cells expressing Ub^G76V-GFP. The format is cell-based. As to conditions: after MG132 removal, cycloheximide chase. Here is the method: Characterization of the Compound Activity in Cells. […] After 4 hours, MG132 was removed and a cycloheximide (CHX) chase was initiated +/− different concentrations of test compound and the rate of reporter degradation was evaluated by monitoring GFP fluorescence by high throughput microscopy. The rate of fluorescence decrease was normalized to DMSO control and analyzed using does-response equation.

In assay [5] the target is T1, Rpn11. Nature of the assay: Rpn11 activity assay (fluorescence polarization, Ub4-pepOG cleavage by 26S proteasome). The assay is classed as biochemical. As to conditions: does not inhibit Csn5 or AMSH with the same potency as Rpn11.

T1 sequence (O00487 whole entry, looked up, the tested form may be a part): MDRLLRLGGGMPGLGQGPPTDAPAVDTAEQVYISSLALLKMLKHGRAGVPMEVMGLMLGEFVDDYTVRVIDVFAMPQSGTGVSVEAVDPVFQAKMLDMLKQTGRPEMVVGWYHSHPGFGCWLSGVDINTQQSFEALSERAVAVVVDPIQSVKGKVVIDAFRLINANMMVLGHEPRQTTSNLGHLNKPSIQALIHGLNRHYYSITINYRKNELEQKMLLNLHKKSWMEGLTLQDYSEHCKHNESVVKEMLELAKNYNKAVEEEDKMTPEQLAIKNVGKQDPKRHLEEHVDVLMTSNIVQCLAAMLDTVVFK
AMSH, sequence (O95630 whole entry): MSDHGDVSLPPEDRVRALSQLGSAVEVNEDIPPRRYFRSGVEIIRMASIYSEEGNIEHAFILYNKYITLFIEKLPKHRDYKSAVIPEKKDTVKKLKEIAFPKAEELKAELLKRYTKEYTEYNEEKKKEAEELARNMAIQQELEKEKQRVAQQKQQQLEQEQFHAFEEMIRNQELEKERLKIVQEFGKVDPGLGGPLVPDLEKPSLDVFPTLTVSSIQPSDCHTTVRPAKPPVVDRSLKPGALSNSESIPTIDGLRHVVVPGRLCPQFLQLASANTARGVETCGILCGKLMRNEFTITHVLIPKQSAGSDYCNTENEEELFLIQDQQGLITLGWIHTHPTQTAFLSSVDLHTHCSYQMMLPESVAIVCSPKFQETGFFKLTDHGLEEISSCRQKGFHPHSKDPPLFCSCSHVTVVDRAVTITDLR

Turning to `O=C(NCCc1cccs1)c1ccnc2c(SSc3cccc4c(C(=O)NCCc5cccs5)ccnc34)cccc12` [Compound 24, 8,8′-disulfanediylbis(N-(2-(thiophen-2-yl)ethyl)quinoline-4-carboxamide)], the pIC50 in assay [1] was 6.15; in assay [2] it was 5.14; in assay [3] it was 6.00; in assay [4], 5.96. Also, in assay [5], the “specificity for Rpn11 versus Csn5 and/or AMSH (in words)” value is given as “specific inhibitors of Rpn11”.

In the case of `O=C(NCCc1ccco1)c1ccnc2c(SSc3cccc4c(C(=O)NCCc5ccco5)ccnc34)cccc12` [Compound 26, 8,8′-disulfanediylbis(N-(2-(furan-2-yl)ethyl)quinoline-4-carboxamide)], the negative logarithm of the IC50 (pIC50) in assay [1] is 6.00; in assay [2], 5.10; in assay [3], 5.54; in assay [4] (Homo sapiens), 5.80. Further, the “specificity for Rpn11 versus Csn5 and/or AMSH (in words)” value in assay [5] is reported as “specific inhibitors of Rpn11”.

As for `O=C(NCc1ccc(C(F)(F)F)cc1)c1cnc2c(SSc3cccc4cc(C(=O)NCc5ccc(C(F)(F)F)cc5)cnc34)cccc2c1` [Compound 18, 8,8′-Disulfanediylbis(N-(4-(trifluoromethyl)benzyl)quinoline-3-carboxamide)], the pIC50 in assay [1] was 6.15; in assay [2] it was under 4.00; in assay [3], 5.47; in assay [4], under 5.00. Moreover, in assay [5], the “specificity for Rpn11 versus Csn5 and/or AMSH (in words)” value is listed as “specific inhibitors of Rpn11”.

`COc1ccc(CNC(=O)c2cnc3c(SSc4cccc5cc(C(=O)NCc6ccc(OC)cc6)cnc45)cccc3c2)cc1` [Compound 19, 8,8′-Disulfanediylbis(N-(4-methoxybenzyl)quinoline-3-carboxamide)]: the pIC50 in assay [2] is 6.30; in assay [3] it was 6.22; in assay [4] (Homo sapiens), under 5.00. Further, the “specificity for Rpn11 versus Csn5 and/or AMSH (in words)” value in assay [5] is “specific inhibitors of Rpn11”.

Consider `NC(=O)c1cnc2c(SSc3cccc4cc(C(N)=O)cnc34)cccc2c1` [Compound 1, 8,8′-Disulfanediylbis(quinoline-3-carboxamide)], for which the pIC50 was 6.00 in assay [1], 4.82 in assay [2], 5.92 in assay [3] and 5.92 in assay [4] (Homo sapiens). Also, the “specificity for Rpn11 versus Csn5 and/or AMSH (in words)” value in assay [5] is “specific inhibitors of Rpn11”.

Turning to `O=C(NCc1ccc(F)cc1)c1cnc2c(SSc3cccc4cc(C(=O)NCc5ccc(F)cc5)cnc34)cccc2c1` [Compound 17, 8,8′-Disulfanediylbis(N-(4-fluorobenzyl)quinoline-3-carboxamide)], the pIC50 in assay [2] was 4.74; in assay [3], 6.07; in assay [4] (Homo sapiens), under 5.00. Moreover, the “specificity for Rpn11 versus Csn5 and/or AMSH (in words)” value in assay [5] is listed as “specific inhibitors of Rpn11”.

In the case of `O=C(NCc1ccncc1)c1cnc2c(SSc3cccc4cc(C(=O)NCc5ccncc5)cnc34)cccc2c1` [Compound 15, 8,8′-Disulfanediylbis(N-(pyridin-4-ylmethyl)quinoline-3-carboxamide)], the pIC50 is 6.70 in assay [1], 5.15 in assay [2], 6.30 in assay [3] and under 5.00 in assay [4]. In assay [5], the “specificity for Rpn11 versus Csn5 and/or AMSH (in words)” value is “specific inhibitors of Rpn11”.

As a reminder, the pIC50 is −log10 of the IC50, conventionally taken in molar units. Low readings indicate a large IC50, high ones a small IC50.
